From patent publication US20230234942A1, “COMPOUNDS FOR TREATING HUNTINGTON'S DISEASE” (PTC Therapeutics, Inc., priority 2020, published 2023)

System: Endogenous Huntingtin Protein
Experiment: Endogenous Huntingtin Protein Assay (ELISA-based MSD electrochemiluminescence)
Type: cell-based
How it was run: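 Endogenous huntingtin measured on MSD plates coated with MW1 (polyglutamine-expanded) or MAB2166 capture antibody; lysates bound overnight at 4 °C. Signal developed with #56565 rabbit monoclonal and goat anti-rabbit SULFO-TAG (0.25 µg/mL, 1 h RT each), electrochemiluminescence read on SI 6000.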

[1] = Table 2, MSD plates coated with MW1 (expanded polyglutamine) or MAB2166 capture antibody, "inactive" = result above the detection limit of the assay

SMILES | IC50 [1] | IC50 (Table 3, selected compounds from WO/2019/191229 A1, same MSD assay)
CC(C)[C@H]1CN(c2ncc(-c3ccc(-c4ncsn4)cc3O)nn2)CCN1 [Cpd 239, 2-{3-[(3S)-3-(propan-2-yl)piperazin-1-yl]-1,2,4-triazin-6-yl}-5-(1,2,4-thiadiazol-3-yl)phenol] | 12.4 nM | –
CC(C)[C@H]1CN(c2ncc(-c3ccc(-c4ncc(F)s4)cc3O)nn2)CCN1 [Cpd 196, 5-(5-fluoro-1,3-thiazol-2-yl)-2-{3-[(3S)-3-(propan-2-yl)piperazin-1-yl]-1,2,4-triazin-6-yl}phenol] | 492 nM | –
C[C@@H]1CN(c2ncc(-c3ccc(-c4ncns4)cc3O)nn2)C[C@H](C2CC2)N1 (single isomer, unassigned) [Cpd 269, 2-{3-[(3S,5R)-3-cyclopropyl-5-methylpiperazin-1-yl]-1,2,4-triazin-6-yl}-5-(1,2,4-thiadiazol-5-yl)phenol or 2-{3-[(3R,5S)-3-cyclopropyl-5-methylpiperazin-1-yl]-1,2,4-triazin-6-yl}-5-(1,2,4-thiadiazol-5-yl)phenol] | 53.9 nM | –
Cn1nnc2ccc(-c3ccc(-c4cnc(N5CCN[C@@H](C6CC6)C5)nn4)c(O)c3)nc21 [Cpd 173, 2-{3-[(3S)-3-cyclopropylpiperazin-1-yl]-1,2,4-triazin-6-yl}-5-(3-methyl-3H-[1,2,3]triazolo[4,5-b]pyridin-5-yl)phenol] | 21.3 nM | –
CC(C)(O)C1CN(c2ncc(-c3ccc(-c4cn[nH]c4)cc3O)nn2)CCN1 (stereo not shown) [Cpd 13, 2-{3-[3-(2-hydroxypropan-2-yl)piperazin-1-yl]-1,2,4-triazin-6-yl}-5-(1H-pyrazol-4-yl)phenol] | 11.4 nM | –
Oc1cc(-c2cnn3c2CCC3)ccc1-c1cnc(N2CCN[C@@H](C3CC3)C2)nn1 [Cpd 276, 2-{3-[(3S)-3-cyclopropylpiperazin-1-yl]-1,2,4-triazin-6-yl}-5-(5,6-dihydro-4H-pyrrolo[1,2-b]pyrazol-3-yl)phenol] | 3.7 nM | –
Cc1cn2cc(-c3ccc(-c4cnc(N5CCN[C@@H](C(C)C)C5)nn4)c(O)c3)cc(C)c2n1 [Cpd 131, 5-(2,8-dimethylimidazo[1,2-a]pyridin-6-yl)-2-{3-[(3S)-3-(propan-2-yl)piperazin-1-yl]-1,2,4-triazin-6-yl}phenol] | 7.6 nM | –
[2H]C([2H])([2H])n1cc(-c2ccc(-c3cnc(N4CC5CCC(C4)N5C)nn3)c(O)c2)cn1 [Cpd 58, 2-[3-(8-methyl-3,8-diazabicyclo[3.2.1]octan-3-yl)-1,2,4-triazin-6-yl]-5-[l-(^2H3)methyl-1H-pyrazol-4-yl]phenol] | 678 nM | –
Cc1nc2ncc(-c3ccc(-c4cnc(N5C[C@@H](C)N[C@@H](C)C5)nn4)c(O)c3)cn2n1 [Cpd 112, 2-{3-[(3R,5S)-3,5-dimethylpiperazin-1-yl]-1,2,4-triazin-6-yl}-5-(2-methyl[1,2,4]triazolo[1,5-a]pyrimidin-6-yl)phenol] | 34 nM | –
Oc1cc(-c2ccncn2)ccc1-c1cnc(N2CCN[C@@H](C3CC3)C2)nn1 [Cpd 192, 2-{3-[(3S)-3-cyclopropylpiperazin-1-yl]-1,2,4-triazin-6-yl}-5-(pyrimidin-4-yl)phenol] | 34.2 nM | –
Cc1cnn(-c2ccc(-c3cnc(N4CCN[C@H](C5CC5)C4)nn3)c(O)c2)n1 [Cpd 183, 2-{3-[(3R)-3-cyclopropylpiperazin-1-yl]-1,2,4-triazin-6-yl}-5-(4-methyl-2H-1,2,3-triazol-2-yl)phenol] | 18.8 nM | –
CC(C)[C@H]1CN(c2ncc(-c3ccc(-c4nnc(C(F)F)s4)cc3O)nn2)CCN1 [Cpd 205, 5-[5-(difluoromethyl)-1,3,4-thiadiazol-2-yl]-2-{3-[(3S)-3-(propan-2-yl)piperazin-1-yl]-1,2,4-triazin-6-yl}phenol] | 904 nM | –
CCC1CN(c2ncc(-c3ccc(-c4cc(F)c5nn(C)cc5c4)cc3O)nn2)CCN1 (stereo not shown) [Cpd 74, 2-[3-(3-ethylpiperazin-1-yl)-1,2,4-triazin-6-yl]-5-(7-fluoro-2-methyl-2H-indazol-5-yl)phenol] | 4.3 nM | –
Cc1nc2cc(-c3ccc(-c4cnc(N5CCN[C@@H](C(C)C)C5)nn4)c(O)c3)ccn2n1 [Cpd 147, 5-(2-methyl[1,2,4]triazolo[1,5-a]pyridin-7-yl)-2-{3-[(3S)-3-(propan-2-yl)piperazin-1-yl]-1,2,4-triazin-6-yl}phenol] | 38.8 nM | –
Oc1cc(-c2ncco2)ccc1-c1cnc(N2CCN[C@@H](C3CC3)C2)nn1 [Cpd 233, 2-{3-[(3S)-3-cyclopropylpiperazin-1-yl]-1,2,4-triazin-6-yl}-5-(1,3-oxazol-2-yl)phenol] | 17.7 nM | –

The remaining lines, values ahead:

IC50 [1] | IC50 (Table 3, selected compounds from WO/2019/191229 A1, same MSD assay) | SMILES
236 nM | – | CC(C)[C@H]1CN(c2ncc(-c3ncc(-n4nccn4)cc3O)nn2)CCN1 [Cpd 175, 2-{3-[(3S)-3-(propan-2-yl)piperazin-1-yl]-1,2,4-triazin-6-yl}-5-(2H-1,2,3-triazol-2-yl)pyridin-3-ol]
18 nM | – | Cc1cn2cc(-c3ccc(-c4cnc(N5CCN[C@@H](C(C)C)C5)nn4)c(O)c3)cc(C(F)(F)F)c2n1 [Cpd 139, 5-[2-methyl-8-(trilluoromethyl)imidazo[1,2-a]pyridin-6-yl]-2-{3-[(3S)-3-(propan-2-yl)piperazin-1-yl]-1,2,4-triazin-6-yl}phenol]
– | 106 nM | Oc1cc(-c2cn[nH]c2)ccc1-c1cnc(N2CCNCC2)nn1 [WO/2019/191229 A1 Cpd 328, reference compound]
355 nM | – | Cn1nnc2ncc(-c3ccc(-c4cnc(N5CCN[C@@H](C6CC6)C5)nn4)c(O)c3)cc21 [Cpd 169, 2-{3-[(3S)-3-cyclopropylpiperazin-1-yl]-1,2,4-triazin-6-yl}-5-(1-methyl-1H-[1,2,3]triazolo[4,5-b]pyridin-6-yl)phenol]
5.3 nM | – | C[C@@H]1CN(c2ncc(-c3ccc(-c4cc(C#N)c5nn(C)cc5c4)cc3O)nn2)C[C@H](C)N1 [Cpd 80, 5-(4-{3-[(3R,5S)-3,5-dimethylpiperazin-1-yl]-1,2,4-triazin-6-yl}-3-hydroxyphenyl)-2-methyl-2H-indazole-7-carbonitrile]
26.2 nM | – | COc1cc(-c2cc(O)c(-c3cnc(N4CCN[C@@H](C(C)C)C4)nn3)c(F)c2)ncn1 [Cpd 28, 3-fluoro-5-(6-methoxypyrimidin-4-yl)-2-{3-[(3S)-3-(propan-2-yl)piperazin-1-yl]-1,2,4-triazin-6-yl}phenol]
8.3 nM | – | CC(C)[C@H]1CN(c2ncc(-c3ccc(-c4cnn5c4CCC5)cc3O)nn2)CCN1 [Cpd 278, 5-(5,6-dihydro-4H-pyrrolo[1,2-b]pyrazol-3-yl)-2-{3-[(3S)-3-(propan-2-yl)piperazin-1-yl]-1,2,4-triazin-6-yl}phenol]
256 nM | – | [2H]C([2H])([2H])n1cc(-c2ccc(-c3cnc(N4C[C@@H](C)N[C@@H](C)C4)nn3)c(O)c2)cn1 [Cpd 49, 2-{3-[(3R,5S)-3,5-dimethylpiperazin-1-yl]-1,2,4-triazin-6-yl}-5-[1-(^2H3)methyl-1H-pyrazol-4-yl]phenol]
124 nM | – | C[C@H]1CN(c2ncc(-c3ccc(-c4cn[nH]c4)cc3O)nn2)CCN1 [Cpd 165, 2-{3-[(3S)-3-methylpiperazin-1-yl]-1,2,4-triazin-6-yl}-5-(1H-pyrazol-4-yl)phenol]
4.3 nM | – | Cc1cn2nc(-c3ccc(-c4cnc(N5C[C@@H](C)N[C@@H](C)C5)nn4)c(O)c3)ccc2n1 [Cpd 75, 2-{3-[(3R,5S)-3,5-dimethylpiperazin-1-yl]-1,2,4-triazin-6-yl}-5-(2-methylimidazo[1,2-b]pyridazin-6-yl)phenol]
5.8 nM | – | Cc1cc(-c2ccc(-c3cnc(N4CCN[C@@H](C(C)C)C4)nn3)c(O)c2)cc2cn(C)nc12 [Cpd 140, 5-(2,7-dimethyl-2H-indazol-5-yl)-2-{3-[(3S)-3-(propan-2-yl)piperazin-1-yl]-1,2,4-triazin-6-yl}phenol]
2390 nM | – | Oc1cc(-c2cn[nH]c2)ccc1-c1cnc(N2CCNC(c3ccncc3)C2)nn1 (stereo not shown) [Cpd 62, 5-(1H-pyrazol-4-yl)-2-{3-[3-(pyridin-4-yl)piperazin-1-yl]-1,2,4-triazin-6-yl}phenol]
12.5 nM | – | [2H]C([2H])([2H])n1cc(-c2cc(O)c(-c3cnc(N4CCN[C@@H](C(C)(C)C)C4)nn3)cc2F)cn1 [Cpd 156, 2-{3-[(3S)-3-tert-butylpiperazin-1-yl]-1,2,4-triazin-6-yl}-4-fluoro-5-[1-(^2H3)methyl-1H-pyrazol-4-yl]phenol]
4.8 nM | – | Cc1nnn2cc(-c3ccc(-c4cnc(N5CCN[C@@H](C6CC6)C5)nn4)c(O)c3)ccc12 [Cpd 193, 2-{3-[(3S)-3-cyclopropylpiperazin-1-yl]-1,2,4-triazin-6-yl}-5-(3-methyl[1,2,3]triazolo[1,5-a]pyridin-6-yl)phenol]
36 nM | – | CC(C)[C@H]1CN(c2ncc(-c3ccc(-c4cn5ccnc5cn4)cc3O)nn2)CCN1 [Cpd 113, 5-(imidazo[1,2-a]pyrazin-6-yl)-2-{3-[(3S)-3-(propan-2-yl)piperazin-1-yl]-1,2,4-triazin-6-yl}phenol]
17.1 nM | – | CC(C)[C@H]1CN(c2ncc(-c3ccc(-c4cn[nH]c4)cc3O)nn2)CCN1 [Cpd 20, 2-{3-[(3S)-3-(propan-2-yl)piperazin-1-yl]-1,2,4-triazin-6-yl}-5-(1H-pyrazol-4-yl)phenol]
73.1 nM | – | CC[C@@H]1CN(c2ncc(-c3ccc(-c4cc(OC)ncn4)cc3O)nn2)C[C@H](C)N1 [Cpd 228, 2-{3-[(3R,5S)-3-ethyl-5-methylpiperazin-1-yl]-1,2,4-triazin-6-yl}-5-(6-methoxypyrimidin-4-yl)phenol]
50.7 nM | – | CCC[C@H]1CN(c2ncc(-c3ccc(-c4cn[nH]c4)cc3O)nn2)CCN1 [Cpd 37, 2-{3-[(3S)-3-propylpiperazin-1-yl]-1,2,4-triazin-6-yl}-5-(1H-pyrazol-4-yl)phenol]
100 nM | – | Cc1cn2cc(-c3cnc(-c4cnc(N5CCN(C)CC5)nn4)c(O)c3)cc(C)c2n1 [Cpd 126, 5-(2,8-dimethylimidazo[1,2-a]pyridin-6-yl)-2-[3-(4-methylpiperazin-1-yl)-1,2,4-triazin-6-yl]pyridin-3-ol]
